ChEMBL document CHEMBL3885881, “DrugMatrix”

Species: Rattus norvegicus
Assay: DrugMatrix - Regimen: Daily Repeat
Format: toxicity, organism-based, Sprague-Dawley
Set-up: regimen Daily Repeat, gender Male, age 6-8 weeks
Settings: in vivo, po, 1000 mg/kg, route oral GAVAGE, dose level High, vehicle 100 % WATER; for ABSOLUTE BASOPHIL / ABSOLUTE EOSINOPHIL / ABSOLUTE LYMPHOCYTE / ABSOLUTE MONOCYTE / ABSOLUTE SEGMENTED NEUTROPHIL / BASOPHIL / EOSINOPHIL / ERYTHROCYTE COUNT / HEMATOCRIT / HEMOGLOBIN / LEUKOCYTE COUNT / LYMPHOCYTE / MEAN CORPUSCULAR HEMOGLOBIN / MEAN CORPUSCULAR HEMOGLOBIN CONCENTRATION / MEAN CORPUSCULAR VOLUME / MONOCYTE / NEUTROPHIL / NUCLEATED RED BLOOD CELLS / PLATELET COUNT: tissue Blood; for ALANINE AMINOTRANSFERASE / ALBUMIN / ALKALINE PHOSPHATASE / ASPARTATE AMINOTRANSFERASE / BLOOD UREA NITROGEN / CARBON DIOXIDE / CHLORIDE / CHOLESTEROL / CREATINE PHOSPHOKINASE / CREATININE / GLUCOSE / LACTATE DEHYDROGENASE / LIPASE / PHOSPHORUS / POTASSIUM / SODIUM / TOTAL BILIRUBIN / TOTAL PROTEIN / URIC ACID: tissue Plasma

Compound: Cc1cc(NS(=O)(=O)c2ccc(N)cc2)no1 [SULFAMETHOXAZOLE]
- ABSOLUTE BASOPHIL (72 h, time 3 day): 0 CELLS/uL
- ABSOLUTE EOSINOPHIL (72 h, time 3 day): 124.33 CELLS/uL
- ABSOLUTE LYMPHOCYTE (72 h, time 3 day): 12097 CELLS/uL
- ABSOLUTE MONOCYTE (72 h, time 3 day): 47.67 CELLS/uL
- ABSOLUTE SEGMENTED NEUTROPHIL (72 h, time 3 day): 1331 CELLS/uL
- BASOPHIL (72 h, time 3 day): 0%
- EOSINOPHIL (72 h, time 3 day): 1%
- ERYTHROCYTE COUNT (72 h, time 3 day): 5.34 x10E6/uL
- HEMATOCRIT (72 h, time 3 day): 34.63%
- HEMOGLOBIN (72 h, time 3 day): 13.53 G/DL
- LEUKOCYTE COUNT (72 h, time 3 day): 13.6 x10E3/uL
- LYMPHOCYTE (72 h, time 3 day): 89%
- MEAN CORPUSCULAR HEMOGLOBIN (72 h, time 3 day): 25.37 pg
- MEAN CORPUSCULAR HEMOGLOBIN CONCENTRATION (72 h, time 3 day): 39.07 G/DL
- MEAN CORPUSCULAR VOLUME (72 h, time 3 day): 64.87 fL
- MONOCYTE (72 h, time 3 day): 0.33%
- NEUTROPHIL (72 h, time 3 day): 9.67%
- NUCLEATED RED BLOOD CELLS (72 h, time 3 day): 0 /100WBC
- PLATELET COUNT (72 h, time 3 day): 1220 x10E3/uL
- ALANINE AMINOTRANSFERASE (72 h, time 3 day): 53.33 u/L
- ALBUMIN (72 h, time 3 day): 4.13 G/DL
- ALKALINE PHOSPHATASE (72 h, time 3 day): 298.33 u/L
- ASPARTATE AMINOTRANSFERASE (72 h, time 3 day): 88.67 u/L
- BLOOD UREA NITROGEN (72 h, time 3 day): 16 mg/dL
- CARBON DIOXIDE (72 h, time 3 day): 26 mmol/L
- CHLORIDE (72 h, time 3 day): 101 MEQ/L
- CHOLESTEROL (72 h, time 3 day): 79.67 mg/dL
- CREATINE PHOSPHOKINASE (72 h, time 3 day): 356.33 u/L
- CREATININE (72 h, time 3 day): 0.17 mg/dL
- GLUCOSE (72 h, time 3 day): 141.33 mg/dL
- LACTATE DEHYDROGENASE (72 h, time 3 day): 488.67 u/L
- LIPASE (72 h, time 3 day): 10.67 u/L
- PHOSPHORUS (72 h, time 3 day): 12.43 mg/dL
- POTASSIUM (72 h, time 3 day): 6.92 MEQ/L
- SODIUM (72 h, time 3 day): 145.43 MEQ/L
- TOTAL BILIRUBIN (72 h, time 3 day): 0.2 mg/dL
- TOTAL PROTEIN (72 h, time 3 day): 6.07 G/DL
- URIC ACID (72 h, time 3 day): 1.63 mg/dL
- ABSOLUTE BASOPHIL (120 h, time 5 day): 0 CELLS/uL
- ABSOLUTE EOSINOPHIL (120 h, time 5 day): 0 CELLS/uL
- ABSOLUTE LYMPHOCYTE (120 h, time 5 day): 14525.67 CELLS/uL
- ABSOLUTE MONOCYTE (120 h, time 5 day): 88 CELLS/uL
- ABSOLUTE SEGMENTED NEUTROPHIL (120 h, time 5 day): 1019.67 CELLS/uL
- BASOPHIL (120 h, time 5 day): 0%
- EOSINOPHIL (120 h, time 5 day): 0%
- ERYTHROCYTE COUNT (120 h, time 5 day): 4.62 x10E6/uL
- HEMATOCRIT (120 h, time 5 day): 29.8%
- HEMOGLOBIN (120 h, time 5 day): 12.13 G/DL
- LEUKOCYTE COUNT (120 h, time 5 day): 15.63 x10E3/uL
- LYMPHOCYTE (120 h, time 5 day): 94%
- MEAN CORPUSCULAR HEMOGLOBIN (120 h, time 5 day): 26.43 pg
- MEAN CORPUSCULAR HEMOGLOBIN CONCENTRATION (120 h, time 5 day): 40.77 G/DL
- MEAN CORPUSCULAR VOLUME (120 h, time 5 day): 64.9 fL
- MONOCYTE (120 h, time 5 day): 0.33%
- NEUTROPHIL (120 h, time 5 day): 5.67%
- NUCLEATED RED BLOOD CELLS (120 h, time 5 day): 0 /100WBC
- PLATELET COUNT (120 h, time 5 day): 1090.33 x10E3/uL
- ALANINE AMINOTRANSFERASE (120 h, time 5 day): 53.33 u/L
- ALBUMIN (120 h, time 5 day): 4.1 G/DL
- ALKALINE PHOSPHATASE (120 h, time 5 day): 272.5 u/L
- ASPARTATE AMINOTRANSFERASE (120 h, time 5 day): 97 u/L
- BLOOD UREA NITROGEN (120 h, time 5 day): 17 mg/dL
- CARBON DIOXIDE (120 h, time 5 day): 21 mmol/L
- CHLORIDE (120 h, time 5 day): 107.5 MEQ/L
- CHOLESTEROL (120 h, time 5 day): 73 mg/dL
- CREATINE PHOSPHOKINASE (120 h, time 5 day): 1048.33 u/L
- CREATININE (120 h, time 5 day): 0.21 mg/dL
- GLUCOSE (120 h, time 5 day): 149 mg/dL
- LACTATE DEHYDROGENASE (120 h, time 5 day): 184 u/L
- LIPASE (120 h, time 5 day): 12 u/L
- PHOSPHORUS (120 h, time 5 day): 10.23 mg/dL
- POTASSIUM (120 h, time 5 day): 6.38 MEQ/L
- SODIUM (120 h, time 5 day): 147.2 MEQ/L
- TOTAL BILIRUBIN (120 h, time 5 day): 0.2 mg/dL
- TOTAL PROTEIN (120 h, time 5 day): 5.97 G/DL
- URIC ACID (120 h, time 5 day): 1.2 mg/dL
